Measured values taken from ChEMBL document CHEMBL4651402, “Screening of ~5500 FDA-approved drugs and clinical candidates for anti-SARS-CoV-2 activity” (2021).

Test system: SARS-CoV-2
Assay: microbe, parasite or virus in culture
Settings: Severe acute respiratory syndrome coronavirus 2, Vero C1008, 48 h

NC1CCCCC1N (stereo unspecified)
IC50: > 20 µM | IC50 (read-out: pIC50 (converted)): > 20 µM

CC(=O)N[C@@H](CC(=O)N[C@H](CCC(=O)O)C(=O)O)C(=O)O
IC50: > 20 µM | IC50 (read-out: pIC50 (converted)): > 20 µM

CC(=O)N[C@H]1[C@H]([C@H](O)[C@H](O)CO)O[C@](O)(C(=O)O)C[C@@H]1O
IC50: > 50.1 µM | IC50 (read-out: pIC50 (converted)): > 50.1 µM

CC1CCC(C(C)C)C(=O)C1 (stereo unspecified)
IC50: > 20 µM | IC50 (read-out: pIC50 (converted)): > 20 µM

N[C@H](Cn1ccc(=O)c(O)c1)C(=O)O
IC50: > 20 µM | IC50 (read-out: pIC50 (converted)): > 20 µM

CC(C)CCC[C@@H](C)[C@H]1CC[C@H]2[C@@H]3CC=C4CC(O)CC[C@]4(C)[C@H]3CC[C@]12C (stereo partly specified)
IC50: > 20 µM | IC50 (read-out: pIC50 (converted)): > 20 µM

C=CCC(N)c1ccccc1-c1noc2ccccc12 (stereo unspecified)
IC50: > 20 µM | IC50 (read-out: pIC50 (converted)): > 20 µM

CC(=O)SC[C@@H](C)C(=O)N1CCC[C@H]1C(=O)N[C@@H](Cc1ccccc1)C(=O)O
IC50: > 20 µM | IC50 (read-out: pIC50 (converted)): > 20 µM

CCCNS(=O)(=O)Nc1ncnc(OCCOc2ncc(Br)cn2)c1-c1ccc(Br)cc1
IC50: > 20 µM | IC50 (read-out: pIC50 (converted)): > 20 µM

NC(=O)c1nc(F)cnc1O
IC50: > 50.1 µM | IC50 (read-out: pIC50 (converted)): > 50.1 µM

COC(=O)N[C@H](C(=O)N1CCC[C@H]1c1ncc(-c2ccc(-c3ccc(-c4cnc([C@@H]5CC6(CN5C(=O)[C@@H](NC(=O)OC)C(C)C)OCCO6)[nH]4)cc3)cc2)[nH]1)C(C)C
IC50: > 20 µM | IC50 (read-out: pIC50 (converted)): > 20 µM

C[C@]12CC[C@H](O)CC1CC[C@@H]1[C@@H]2CC[C@]2(C)C(=O)CC[C@@H]12 (stereo partly specified)
IC50: > 20 µM | IC50 (read-out: pIC50 (converted)): > 20 µM

CC(=O)c1cnc2ccc(-c3cc(Cl)c(O)c(Cl)c3)nc2c1N[C@H]1CC[C@H](CN(C)C)CC1
IC50: > 20 µM | IC50 (read-out: pIC50 (converted)): > 20 µM

CC(C)Cc1sc(-c2nccs2)nc1C(=O)NCc1ccc(F)cc1
IC50: > 20 µM | IC50 (read-out: pIC50 (converted)): > 20 µM

O=C(O)c1ccc(C2CC2c2ccc(OCc3c(-c4c(Cl)cccc4Cl)noc3C3CC3)cc2Cl)cc1 (stereo unspecified)
IC50: > 20 µM | IC50 (read-out: pIC50 (converted)): > 20 µM

COCc1c(-c2ccc(NC(=O)Nc3cc(C(F)(F)F)ccc3F)c(F)c2)c2c(N)ncnn2c1CN1CCOCC1
IC50: > 20 µM | IC50 (read-out: pIC50 (converted)): > 20 µM

COc1cc2c(cc1Cc1cccc(Cl)c1F)c(=O)c(C(=O)O)cn2[C@@H](CO)C(C)C
IC50: > 20 µM | IC50 (read-out: pIC50 (converted)): > 20 µM

Nc1ccc(F)cc1NC(=O)c1ccc(CNC(=O)/C=C/c2cccnc2)cc1
IC50: > 20 µM | IC50 (read-out: pIC50 (converted)): > 20 µM

C=C(C)C1CC=C(CO)CC1 (stereo unspecified)
IC50: > 20 µM | IC50 (read-out: pIC50 (converted)): > 20 µM

CC(C)OC(=O)[C@H](C)NP(=O)(OC[C@H]1O[C@@H](n2ccc(=O)[nH]c2=O)[C@](C)(Cl)[C@@H]1O)Oc1ccccc1 (stereo partly specified)
IC50: > 20 µM | IC50 (read-out: pIC50 (converted)): > 20 µM

CC(C)[N@+]1(C)C2CC[C@H]1C[C@@H](OC(=O)C(CO)c1ccccc1)C2 (stereo partly specified)
IC50: > 20 µM | IC50 (read-out: pIC50 (converted)): > 20 µM

CC1=C(O)C(=O)C=C2C1=CC=C1C3(C)CC[C@@]4(C)CC[C@@](C)(C(=O)O)C[C@H]4[C@]3(C)CC[C@@]21C (stereo partly specified)
IC50: > 20 µM | IC50 (read-out: pIC50 (converted)): > 20 µM

CC(=O)[C@H]1CC[C@H]2[C@@H]3CCC4C[C@@H](O)CC[C@]4(C)[C@H]3CC[C@]12C (stereo partly specified)
IC50: > 20 µM | IC50 (read-out: pIC50 (converted)): > 20 µM

CC(C)CC1C(=O)N2CCCC2C2(O)OC(NC(=O)C3CC4c5cccc6[nH]cc(c56)CC4N(C)C3)(C(C)C)C(=O)N12 (stereo unspecified)
IC50: > 20 µM | IC50 (read-out: pIC50 (converted)): > 20 µM

Cc1cn2nc([C@H]3CCCCN3C(=O)c3cc(Cl)ccc3NS(C)(=O)=O)cc2nc1N1CC[C@H](N)C1
IC50: > 20 µM | IC50 (read-out: pIC50 (converted)): > 20 µM

N=C(N)Nc1ccc(C(=O)Oc2ccc3c(c2)OC[C@H]3CC(=O)N[C@@H](CC(=O)O)C(=O)O)cc1
IC50: > 20 µM | IC50 (read-out: pIC50 (converted)): > 20 µM

O=C(O)c1ccc(CN2CC3CC2CN3Cc2ccc(Oc3ccc(-c4ncco4)cc3)cc2)cc1 (stereo unspecified)
IC50: > 20 µM | IC50 (read-out: pIC50 (converted)): > 20 µM

CC[N@@+]1(C)[C@@H]2CC[C@H]1C[C@@H](OC(=O)[C@]1(c3ccccc3)CC[C@H](C(=O)O[C@H]3C[C@H]4CC[C@@H](C3)[N@+]4(C)CC)c3ccccc31)C2
IC50: > 20 µM | IC50 (read-out: pIC50 (converted)): > 20 µM

c1ccc([C@@H]2CN=C3NCCN32)cc1
IC50: > 20 µM | IC50 (read-out: pIC50 (converted)): > 20 µM

NCCC(O)C(=O)N[C@@H]1C[C@H](N)[C@@H](OC2O[C@H](CN)[C@@H](O)[C@H](O)[C@H]2N)[C@H](OC2O[C@H](CO)C(O)[C@H]2O)[C@H]1O (stereo partly specified)
IC50: > 20 µM | IC50 (read-out: pIC50 (converted)): > 20 µM

C=C1[C@@H]2CC[C@H]3[C@]4(C)C[C@H](O[C@H]5O[C@H](CO)[C@@H](OS(=O)(=O)O)[C@H](OS(=O)(=O)O)[C@H]5OC(=O)CC(C)C)C[C@@H](C(=O)O)[C@H]4CC[C@]3(C2)[C@H]1O
IC50: > 20 µM | IC50 (read-out: pIC50 (converted)): > 20 µM

C[C@@H]1CCC2[C@H](C)C3CC[C@@]4(O)[C@@H]5CC(=O)[C@H]6CC(=O)CC[C@]6(C)C5C[C@H]4[C@@H]3CN2C1 (stereo partly specified)
IC50: > 20 µM | IC50 (read-out: pIC50 (converted)): > 20 µM

Nc1ncnc2c1nc(Cl)n2C1O[C@H](CO)[C@@H](O)[C@H]1O (stereo partly specified)
IC50: > 20 µM | IC50 (read-out: pIC50 (converted)): > 20 µM

CCCCc1ncc(C=C(Cc2cccs2)C(=O)O)n1Cc1ccc(C(=O)O)cc1
IC50: > 20 µM | IC50 (read-out: pIC50 (converted)): > 20 µM

CCN1C[C@]2(COC)CC[C@H](OC)[C@]34[C@@H]5C[C@H]6[C@H](OC)[C@@H]5[C@@]5(C[C@@H]6OC)OCO[C@@]5([C@H]13)[C@@H](O)[C@H]24
IC50: > 20 µM | IC50 (read-out: pIC50 (converted)): > 20 µM

CC(CCC(=O)O)C1CCC2C3C[C@H](O)[C@@H]4C[C@H](O)CC[C@]4(C)C3CC[C@]12C (stereo partly specified)
IC50: > 20 µM | IC50 (read-out: pIC50 (converted)): > 20 µM

CCCCN1C[C@@H](O)[C@@H](O)[C@H](O)[C@H]1CO
IC50: > 20 µM | IC50 (read-out: pIC50 (converted)): > 20 µM

CO[C@H]1C[C@@H]2CC[C@@H](C)[C@@](O)(O2)C(=O)C(=O)N2CCCC[C@H]2C(=O)O[C@H]([C@H](C)C[C@@H]2CC[C@H](n3cnnn3)[C@H](OC)C2)CC(=O)[C@H](C)/C=C(/C)[C@@H](O)[C@@H](OC)C(=O)[C@H](C)C[C@H](C)\C=C/C=C\C=C/1C
IC50: > 20 µM | IC50 (read-out: pIC50 (converted)): > 20 µM

CC(C)OC(=O)[C@@H](C)NP(=O)(OC[C@H]1O[C@@H](n2ccc(=O)[nH]c2=O)[C@](C)(O)[C@@H]1O)Oc1ccccc1 (stereo partly specified)
IC50: > 20 µM | IC50 (read-out: pIC50 (converted)): > 20 µM

C/C(=N/NC(=N)N)c1cc(NC(=O)CCCCCCCCC(=O)Nc2cc(/C(C)=N\NC(=N)N)cc(/C(C)=N/NC(=N)N)c2)cc(/C(C)=N/NC(=N)N)c1
IC50: > 20 µM | IC50 (read-out: pIC50 (converted)): > 20 µM

CC1CC[C@@]2(OC1)OC1CC3C4CC[C@H]5C[C@@H](O)CC[C@]5(C)C4C[C@@H](O)[C@]3(C)C1[C@@H]2C (stereo partly specified)
IC50: > 20 µM | IC50 (read-out: pIC50 (converted)): > 20 µM

OC[C@@H]1CCCN2CCCCC12 (stereo partly specified)
IC50: > 20 µM | IC50 (read-out: pIC50 (converted)): > 20 µM

COC(=O)CCC(C)C1CCC2C3C(C[C@H](O)[C@]12C)[C@@]1(C)CC[C@@H](O)C[C@H]1C[C@H]3O (stereo partly specified)
IC50: > 20 µM | IC50 (read-out: pIC50 (converted)): > 20 µM

Cc1cn(Cc2ccc(Cl)cc2Cl)c2c(/C=C/C(=O)NS(=O)(=O)c3cc(Cl)c(Cl)s3)cc(F)cc12
IC50: > 20 µM | IC50 (read-out: pIC50 (converted)): > 20 µM

CCOc1ccccc1O[C@@H](c1ccccc1)[C@H]1CNCCO1
IC50: > 20 µM | IC50 (read-out: pIC50 (converted)): > 20 µM

CC1OC(n2cc(F)c(=O)[nH]c2=O)C(O)C1O (stereo unspecified)
IC50: > 20 µM | IC50 (read-out: pIC50 (converted)): > 20 µM

CC(C)(C)C(=O)Oc1ccc(S(=O)(=O)Nc2ccccc2C(=O)NCC(=O)O)cc1
IC50: > 20 µM | IC50 (read-out: pIC50 (converted)): > 20 µM

COc1cccc(OC)c1-c1ccc(C[C@H](NC(=O)c2c(Cl)cccc2Cl)C(=O)O)cc1
IC50: > 20 µM | IC50 (read-out: pIC50 (converted)): > 20 µM
